Converted amounts (≈) assume the structure as drawn.
These molecules were tested on Aspergillus niger (assay: Agar-plate minimum inhibitory concentration (Example 12)). Conditions: agar, 72-120 hours, read-out: Minimum Inhibitory Concentration.
Format: cell-based
Procedure: (§1) The test compound was added to molten agar as a solution (when conveniently soluble in a solvent such as dimethylformamide) or a suspension forming a mixture having a concentration of 0.05 percent (500 ppm). The mixture was stirred and poured into plates to harden. When hardened, the plates were inoculated with various bacteria and fungi. The bacteria-inoculated plates were incubated at 37° C. for 24 hours, while the fungi-inoculated plates were incubated for about 72-120 hours. Following incubation, the plates were examined for growth or inhibition of the respective organisms.
(§2) After the initial readings, compounds showing sufficient activity were re-tested at various concentrations to determine the minimum inhibitory concentration (in ppm) of the compounds of the invention against the various bacteria and fungi tested.

| Structure (SMILES) | MIC |
| --- | --- |
| CCOC(=O)CNC(=O)Oc1cccc2ccc(C)nc12 [Example 3, Ethyl N-(((2-methyl-8-quinolinyl)oxy)carbonyl)glycinate] | 500 µg/mL (≈ 1730 µM) |

Each molecule was assayed on Bacillus subtilis in the same assay as above. Conditions: agar, 37° C., 24 hours, read-out: Minimum Inhibitory Concentration.
Format: cell-based
Procedure: as §1, §2

| Structure (SMILES) | MIC |
| --- | --- |
| CCOC(=O)CNC(=O)Oc1cccc2ccc(C)nc12 [Example 3, Ethyl N-(((2-methyl-8-quinolinyl)oxy)carbonyl)glycinate] | 10 µg/mL (≈ 34.7 µM) |

Each molecule was assayed on Candida albicans in the same assay as above. Conditions: agar, 72-120 hours, read-out: Minimum Inhibitory Concentration.
Format: cell-based
Procedure: as §1, §2

| Structure (SMILES) | MIC |
| --- | --- |
| CCOC(=O)CNC(=O)Oc1cccc2ccc(C)nc12 [Example 3, Ethyl N-(((2-methyl-8-quinolinyl)oxy)carbonyl)glycinate] | 500 µg/mL (≈ 1730 µM) |

Each molecule was assayed on Candida pelliculosa in the same assay as above. Conditions: Hansenula anomala; Candida pelliculosa; agar, 72-120 hours; read-out: Minimum Inhibitory Concentration.
Format: cell-based
Procedure: as §1, §2

| Structure (SMILES) | MIC |
| --- | --- |
| CCOC(=O)CNC(=O)Oc1cccc2ccc(C)nc12 [Example 3, Ethyl N-(((2-methyl-8-quinolinyl)oxy)carbonyl)glycinate] | 500 µg/mL (≈ 1730 µM) |

Each molecule was assayed on Ceratocystis ips in the same assay as above. Conditions: Ceratocystis ips; agar, 72-120 hours; read-out: Minimum Inhibitory Concentration.
Format: cell-based
Procedure: as §1, §2

| Structure (SMILES) | MIC |
| --- | --- |
| CCOC(=O)CNC(=O)Oc1cccc2ccc(C)nc12 [Example 3, Ethyl N-(((2-methyl-8-quinolinyl)oxy)carbonyl)glycinate] | 500 µg/mL (≈ 1730 µM) |

These molecules were tested on Salmonella typhosa in the same assay as above. Conditions: Salmonella enterica; Salmonella typhosa; agar, 37° C., 24 hours; read-out: Minimum Inhibitory Concentration.
Format: cell-based
Procedure: as §1, §2

| Structure (SMILES) | MIC |
| --- | --- |
| CCOC(=O)CNC(=O)Oc1cccc2ccc(C)nc12 [Example 3, Ethyl N-(((2-methyl-8-quinolinyl)oxy)carbonyl)glycinate] | 50 µg/mL (≈ 173 µM) |

The molecules below were run on Streptococcus mutans in the same assay as above. Conditions: agar, 37° C., 24 hours, read-out: Minimum Inhibitory Concentration.
Format: cell-based
Procedure: as §1, §2

| Structure (SMILES) | MIC |
| --- | --- |
| CCOC(=O)CNC(=O)Oc1cccc2ccc(C)nc12 [Example 3, Ethyl N-(((2-methyl-8-quinolinyl)oxy)carbonyl)glycinate] | 500 µg/mL (≈ 1730 µM) |

What follows are molecules tested on Trichophyton mentagrophytes in the same assay as above. Conditions: agar, 72-120 hours, read-out: Minimum Inhibitory Concentration.
Format: cell-based
Procedure: as §1, §2

| Structure (SMILES) | MIC |
| --- | --- |
| CCOC(=O)CNC(=O)Oc1cccc2ccc(C)nc12 [Example 3, Ethyl N-(((2-methyl-8-quinolinyl)oxy)carbonyl)glycinate] | 500 µg/mL (≈ 1730 µM) |

Each molecule was assayed on Enterobacter aerogenes ATCC 13048 (assay: Minimum inhibitory concentration, urinary tract organisms (Example 13)). Conditions: Klebsiella aerogenes, ATCC13048; Ea 13048; read-out: Minimum Inhibitory Concentration.
Format: cell-based
Procedure: as §1, §2
(§3) Following a procedure substantially the same as that described in Example 12, the minimum inhibitory concentration for the compounds described herein was determined for various organisms representative of those commonly associated with urinary tract infections.
(§4) The organisms used in this procedure and the abbreviations designated in Table 3 are as follows: […]

| Structure (SMILES) | MIC |
| --- | --- |
| CCOC(=O)CNC(=O)Oc1cccc2ccc(C)nc12 [Example 3, Ethyl N-(((2-methyl-8-quinolinyl)oxy)carbonyl)glycinate] | 250 µg/mL (≈ 867 µM) |

These molecules were tested on Escherichia coli ATCC 11229 in the same assay as above. Conditions: ATCC11229, Ec 11229, read-out: Minimum Inhibitory Concentration.
Format: cell-based
Procedure: as §1, §2, §3, §4

| Structure (SMILES) | MIC |
| --- | --- |
| CCOC(=O)CNC(=O)Oc1cccc2ccc(C)nc12 [Example 3, Ethyl N-(((2-methyl-8-quinolinyl)oxy)carbonyl)glycinate] | 75 µg/mL (≈ 260 µM) |

Each molecule was assayed on Escherichia coli ATCC 25922 in the same assay as above. Conditions: ATCC25922, Ec 25922, read-out: Minimum Inhibitory Concentration.
Format: cell-based
Procedure: as §1, §2, §3, §4

| Structure (SMILES) | MIC |
| --- | --- |
| CCOC(=O)CNC(=O)Oc1cccc2ccc(C)nc12 [Example 3, Ethyl N-(((2-methyl-8-quinolinyl)oxy)carbonyl)glycinate] | 75 µg/mL (≈ 260 µM) |

The molecules below were run on Escherichia coli ATCC 4157 in the same assay as above. Conditions: ATCC4157, Ec 4157, read-out: Minimum Inhibitory Concentration.
Format: cell-based
Procedure: as §1, §2, §3, §4

| Structure (SMILES) | MIC |
| --- | --- |
| CCOC(=O)CNC(=O)Oc1cccc2ccc(C)nc12 [Example 3, Ethyl N-(((2-methyl-8-quinolinyl)oxy)carbonyl)glycinate] | 100 µg/mL (≈ 347 µM) |

The molecules below were run on Escherichia coli ATCC 9723 in the same assay as above. Conditions: ATCC9723, Ec 9723, read-out: Minimum Inhibitory Concentration.
Format: cell-based
Procedure: as §1, §2, §3, §4

| Structure (SMILES) | MIC |
| --- | --- |
| CCOC(=O)CNC(=O)Oc1cccc2ccc(C)nc12 [Example 3, Ethyl N-(((2-methyl-8-quinolinyl)oxy)carbonyl)glycinate] | 100 µg/mL (≈ 347 µM) |

These molecules were tested on Klebsiella pneumoniae ATCC 23357 in the same assay as above. Conditions: ATCC23357, Kp 23357, read-out: Minimum Inhibitory Concentration.
Format: cell-based
Procedure: as §1, §2, §3, §4

| Structure (SMILES) | MIC |
| --- | --- |
| CCOC(=O)CNC(=O)Oc1cccc2ccc(C)nc12 [Example 3, Ethyl N-(((2-methyl-8-quinolinyl)oxy)carbonyl)glycinate] | 250 µg/mL (≈ 867 µM) |

What follows are molecules tested on Klebsiella pneumoniae M-1 in the same assay as above. Conditions: M1, Kp M-1, read-out: Minimum Inhibitory Concentration.
Format: cell-based
Procedure: as §1, §2, §3, §4

| Structure (SMILES) | MIC |
| --- | --- |
| CCOC(=O)CNC(=O)Oc1cccc2ccc(C)nc12 [Example 3, Ethyl N-(((2-methyl-8-quinolinyl)oxy)carbonyl)glycinate] | 250 µg/mL (≈ 867 µM) |

The molecules below were run on Klebsiella pneumoniae M-2 in the same assay as above. Conditions: M2, Kp M-2, read-out: Minimum Inhibitory Concentration.
Format: cell-based
Procedure: as §1, §2, §3, §4

| Structure (SMILES) | MIC |
| --- | --- |
| CCOC(=O)CNC(=O)Oc1cccc2ccc(C)nc12 [Example 3, Ethyl N-(((2-methyl-8-quinolinyl)oxy)carbonyl)glycinate] | 250 µg/mL (≈ 867 µM) |

The molecules below were run on Klebsiella pneumoniae M-6 in the same assay as above. Conditions: M6, Kp M-6, read-out: Minimum Inhibitory Concentration.
Format: cell-based
Procedure: as §1, §2, §3, §4

| Structure (SMILES) | MIC |
| --- | --- |
| CCOC(=O)CNC(=O)Oc1cccc2ccc(C)nc12 [Example 3, Ethyl N-(((2-methyl-8-quinolinyl)oxy)carbonyl)glycinate] | 250 µg/mL (≈ 867 µM) |

These molecules were tested on Proteus mirabilis 470/1 in the same assay as above. Conditions: Pm 470/1, read-out: Minimum Inhibitory Concentration.
Format: cell-based
Procedure: as §1, §2, §3, §4

| Structure (SMILES) | MIC |
| --- | --- |
| CCOC(=O)CNC(=O)Oc1cccc2ccc(C)nc12 [Example 3, Ethyl N-(((2-methyl-8-quinolinyl)oxy)carbonyl)glycinate] | 250 µg/mL (≈ 867 µM) |

The molecules below were run on Pseudomonas aeruginosa ATCC 10145 in the same assay as above. Conditions: ATCC10145, Pa 10145, read-out: Minimum Inhibitory Concentration.
Format: cell-based
Procedure: as §1, §2, §3, §4

| Structure (SMILES) | MIC |
| --- | --- |
| CCOC(=O)CNC(=O)Oc1cccc2ccc(C)nc12 [Example 3, Ethyl N-(((2-methyl-8-quinolinyl)oxy)carbonyl)glycinate] | 250 µg/mL (≈ 867 µM) |

What follows are molecules tested on Pseudomonas aeruginosa ATCC 27853 in the same assay as above. Conditions: ATCC27853, Pa 27853, read-out: Minimum Inhibitory Concentration.
Format: cell-based
Procedure: as §1, §2, §3, §4

| Structure (SMILES) | MIC |
| --- | --- |
| CCOC(=O)CNC(=O)Oc1cccc2ccc(C)nc12 [Example 3, Ethyl N-(((2-methyl-8-quinolinyl)oxy)carbonyl)glycinate] | > 1000 µg/mL |

What follows are molecules tested on Pseudomonas aeruginosa ATCC 7700 in the same assay as above. Conditions: ATCC7700, Pa 7700, read-out: Minimum Inhibitory Concentration.
Format: cell-based
Procedure: as §1, §2, §3, §4

| Structure (SMILES) | MIC |
| --- | --- |
| CCOC(=O)CNC(=O)Oc1cccc2ccc(C)nc12 [Example 3, Ethyl N-(((2-methyl-8-quinolinyl)oxy)carbonyl)glycinate] | > 1000 µg/mL |

The molecules below were run on Pseudomonas aeruginosa PRD-10 in the same assay as above. Conditions: PRD10, Pa PRD-10, read-out: Minimum Inhibitory Concentration.
Format: cell-based
Procedure: as §1, §2, §3, §4

| Structure (SMILES) | MIC |
| --- | --- |
| CCOC(=O)CNC(=O)Oc1cccc2ccc(C)nc12 [Example 3, Ethyl N-(((2-methyl-8-quinolinyl)oxy)carbonyl)glycinate] | > 1000 µg/mL |

Each molecule was assayed on Serratia marcescens M-1 in the same assay as above. Conditions: M1, Sr M-1, read-out: Minimum Inhibitory Concentration.
Format: cell-based
Procedure: as §1, §2, §3, §4

| Structure (SMILES) | MIC |
| --- | --- |
| CCOC(=O)CNC(=O)Oc1cccc2ccc(C)nc12 [Example 3, Ethyl N-(((2-methyl-8-quinolinyl)oxy)carbonyl)glycinate] | 750 µg/mL (≈ 2600 µM) |

Each molecule was assayed on Staphylococcus aureus ATCC 25923 in the same assay as above. Conditions: ATCC25923, Sa 25923, read-out: Minimum Inhibitory Concentration.
Format: cell-based
Procedure: as §1, §2, §3, §4

| Structure (SMILES) | MIC |
| --- | --- |
| CCOC(=O)CNC(=O)Oc1cccc2ccc(C)nc12 [Example 3, Ethyl N-(((2-methyl-8-quinolinyl)oxy)carbonyl)glycinate] | 25 µg/mL (≈ 86.7 µM) |

Source: patent US4472404A, “8-Quinolinyl carbamates and their use as urinary tract antimicrobials” (priority 1982, dated 1984)
